Holding throughout (assay): greenhouse post-emergence herbicidal test
For experiment [1], the system named is GALAP. It is filed as in vivo, Galium aparine. Also on record: key to herbicidal activity against GALAP found: rating on a scale from 0 to 100. The conditions noted are these: post emergence. The procedure, abridged: (§1)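 Post-emergence greenhouse test: plants in loamy sand, sprayed at 1–15 cm height with aqueous spray liquor from 10% emulsion concentrates, kept at 10-25 °C or 20-35 °C by species. Damage scored 0–100 (100 = complete destruction), usually 20 days after treatment. Expected additive effect E from Colby: E=X+Y−(X·Y/100).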

Experiment [2] concerns GERDI. It is filed as in vivo, Geranium dissectum. Also noted: key to herbicidal activity against GERDI found: rating on a scale from 0 to 100. Particulars: post emergence. The procedure, abridged: (§2)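 Plants were grown in loamy sand (approx. 4.6% humus, 69.9% sand) to 1–15 cm and sprayed post-emergence with actives suspended or emulsified in water, from a 10% by weight emulsion concentrate. Kept at 10-25° C or 20-35° C by species, damage was scored 0–100 at 20 days.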

The test system of experiment [3] is ABUTH. It is filed as in vivo, Abutilon theophrast. Also noted: key to herbicidal activity against ABUTH found: rating on a scale from 0 to 100. The procedure, abridged: as §2
Experiment [4] deals with STEME. It is filed as in vivo, Stellaria media. Also on record: key: scale 0 to 100. As for the experimental part: (§3) The culture containers used were plastic pots containing medium loamy sand with approximately 4.6% of humus and 69.9% sand as substrate. The seeds of the test plants were sown separately for each species.
(§4) For the post-emergence treatment, the test plants were grown to a plant height of from 1 to 15 cm, depending on the plant habit, and only then treated with the active compounds which had been suspended or emulsified in water. To this end, the test plants were either sown directly, and grown in the same containers, or they were first grown separately as seedlings and transplanted into the test containers a few days prior to treatment.
(§5) Depending on the species, the plants were kept at 10-25° C. and 20-35° C., respectively.
(§6) The test period extended over 1 to 3 weeks. During this time, the plants were tended and their response to the individual treatments was evaluated 20 days after treatment except mentioned otherwise.
(§7) Evaluation was carried out using a scale from 0 to 100. 100 means no emergence of the plants, or complete destruction of at least the above-ground parts, and 0 means no damage or normal course of growth.
(§8) The respective stated components A and B, and, if appropriate, C, were formulated as a 10% by weight strength emulsion concentrate and, with addition of the amount of solvent system, introduced into the spray liquor used for applying the active compound. In the examples, the solvent used was water.
(§9) In the examples below, using the method of S. R. Colby (1967) “Calculating synergistic and antagonistic responses of herbicide combinations”, Weeds 15, p. 22 ff., the value E, which is expected if the activity of the individual active compounds is only additive, was calculated. E=X+Y−(X·Y/100)

The subject of experiment [5] is MATCH. It is filed as in vivo, Matricaria recutita. Also noted: key to herbicidal activity against MATCH found: rating on a scale from 0 to 100. In a few lines: as §2
Experiment [6] has as its system ALOMY. It is filed as in vivo, Alopecurus myosuroides. Also noted: key to herbicidal activity against ALOMY found: rating on a scale from 0 to 100. The procedure, abridged:
as §2

The test system of experiment [7] is IPOHE. It is filed as in vivo, Ipomoea hederacea. The conditions noted are these: post emergence. Also noted: key to herbicidal activity against IPOHE found: rating on a scale from 0 to 100. In a few lines:
as §1

The test system of experiment [8] is PAPRH. It is filed as in vivo, Papaver rhoeas. Also noted: key: rating on a scale from 0 to 100. As for the experimental part:
as §3, §4, §5, §6, §7, §8, §9

For experiment [9], the system named is POLCO. It is filed as in vivo, Polygonum convolvulus. Particulars: for herbicidal activity against POLCO found: post emergence. Also noted: key to herbicidal activity against POLCO found: rating on a scale from 0 to 100. In a few lines:
as §1

Experiment [10] concerns ECHCG. It is filed as in vivo, Echinochloa crus-galli. Also noted: key to herbicidal activity against ECHCG found / herbicidal activity against ECHCH found: scale 0 to 100. Particulars: post emergence. As for the experimental part:
as §3, §4, §5, §6, §7, §8, §9

For experiment [11], the system named is ERICA. It is filed as in vivo, Conyza canadensis. Particulars: post emergence. Also on record: key to herbicidal activity against ERICA found: rating on a scale from 0 to 100. The procedure, abridged:
as §2

The test system of experiment [12] is VIOAR. It is filed as in vivo, Viola arvensis. Also on record: key to herbicidal activity against VIOAR found / herbicidal activity against VIOLA found: rating on a scale from 0 to 100. In a few lines: as §1
Experiment [13] has as its system APESV. It is filed as in vivo, Apera spica-venti. Also on record: key to herbicidal activity against APESV found: rating on a scale from 0 to 100. The conditions noted are these: for herbicidal activity against APESV found: post emergence, B.95 1 g/ha a.i. In a few lines: as §2
Experiment [14] has as its system KCHSC. It is filed as in vivo, Kochia scoparia. Particulars: Bassia scoparia, post-emergence, 480 h, read-out: herbicidal activity against KCHSC found. In a few lines: as §1
Where [15] appears, read: application rate a.i.: I.1 31.25 g/ha, B.40 (imazethapyr) 7.5 g/ha, alone or as mixture (composition 1.40).
Setting [16] is: application rate a.i.: I.1 62.5 g/ha, B.40 (imazethapyr) 7.5 g/ha, alone or as mixture (composition 1.40).
Where [17] appears, read: I.1 15.62 g/ha, B.89 25 g/ha a.i.
[18] abbreviates: I.1 62.5 g/ha, B.89 12.5 g/ha a.i.
[19] abbreviates: I.1 62.5 g/ha, B.89 25 g/ha a.i.
[20] abbreviates: I.1 31.25 g/ha, B.89 25 g/ha a.i.
Where [21] appears, read: post emergence, I.1 62.5 g/ha, B.89 12.5 g/ha a.i.
[22] abbreviates: I.1 31.25 g/ha, B.95 1 g/ha a.i.
Where [23] appears, read: I.1 31.25 g/ha, B.95 2 g/ha a.i.
Setting [24] is: I.1 62.5 g/ha, B.95 2 g/ha a.i.
Setting [25] is: I.1 62.5 g/ha, B.95 1 g/ha a.i.
The mark [26] stands for this setting: I.1 15.62 g/ha, B.95 1 g/ha a.i.
[27] abbreviates: post emergence, I.1 31.25 g/ha, B.95 1 g/ha a.i.
Setting [28] is: Matricaria chamomilla, post-emergence, 480 h, read-out: herbicidal activity against MATCH found.
Setting [29] is: a.i. g/ha: I.1 62.5, B.191 225, 20 days after treatment.

For `C#CCOC(=O)[C@@H](C)Oc1ccc(Oc2ncc(Cl)cc2F)cc1` [B.2, clodinafop-propargyl], the pest or weed control at 7.5 g/ha in [1] (Galium aparine, post-emergence, 480 h, 7.5 g/ha a.i., read-out: herbicidal activity against GALAP found) came to 0%; in experiment [2] (Geranium dissectum, post-emergence, 480 h, 7.5 g/ha a.i., read-out: herbicidal activity against GERDI found), 0%; in experiment [7] (Ipomoea hederacea, post-emergence, 480 h, 7.5 g/ha a.i., read-out: herbicidal activity against IPOHE found) it was 10%. In addition, the pest or weed control at 15 g/ha in [3] (Abutilon theophrasti, post-emergence, 480 h, post emergence, 15 g/ha a.i., read-out: herbicidal activity against ABUTH found) came out at 15%; in experiment [5] (Matricaria chamomilla, post-emergence, 480 h, post emergence, 15 g/ha a.i., read-out: herbicidal activity against MATCH found), 0%; in experiment [6] (Alopecurus myosuroides, post-emergence, 480 h, post emergence, 15 g/ha a.i., read-out: herbicidal activity against ALOMY found) it was 85%; in experiment [7] (Ipomoea hederacea, post-emergence, 480 h, 15 g/ha a.i., read-out: herbicidal activity against IPOHE found) it was 40%. Besides, the “herbicidal activity against STEME found” value in experiment [4] (7.5 g/ha a.i.) amounted to 0.
Take `CCc1cnc(C2=NC(C)(C(C)C)C(=O)N2)c(C(=O)O)c1` (centres unmarked) [B.40, imazethapyr]: the “herbicidal activity against GERDI found” value in experiment [2] (setting [15]) is 95; in [2] (setting [16]), 90. Further, the “herbicidal activity against PAPRH found” value in [8] (setting [16]) is recorded as 45. For the same molecule, the “herbicidal activity against POLCO found” value in experiment [9] (setting [15]) worked out at 80. Besides, the “herbicidal activity against IPOHE found” value in experiment [7] (setting [16]) is given as 80. Moreover, the “herbicidal activity against ECHCG found” value in experiment [10] (setting [15]) is reported as 85.
Take `CS(=O)(=O)NC(=O)c1cc(Oc2ccc(C(F)(F)F)cc2Cl)ccc1[N+](=O)[O-]` [B.89, fomesafen]: the “herbicidal activity against GERDI found” value in experiment [2] (setting [17]), in experiment [2] (setting [18]) and in experiment [2] (setting [19]) was 25 throughout. Moreover, the “herbicidal activity against ABUTH found” value in [3] (post emergence, I.1 31.25 g/ha, B.89 25 g/ha a.i.) was found to be 90. In experiment [11] (setting [19]), the “herbicidal activity against ERICA found” value is 20. Moreover, the “herbicidal activity against STEME found” value in experiment [4] (setting [17]) came out at 0; in [4] (I.1 31.25 g/ha, B.89 12.5 g/ha a.i.) it was 0; in experiment [4] (setting [20]), 0. Further, the “herbicidal activity against POLCO found” value in experiment [9] (I.1 15.62 g/ha, B.89 12.5 g/ha a.i.) was determined as 95. Besides, the “herbicidal activity against ALOMY found” value in experiment [6] (setting [21]) worked out at 25. In addition, the “herbicidal activity against VIOAR found” value in experiment [12] (setting [21]) amounted to 55. The “herbicidal activity against IPOHE found” value in experiment [7] (setting [17]), in experiment [7] (setting [20]), in experiment [7] (setting [18]) and in experiment [7] (setting [19]) was 85 each time.
Take `C#CCN1C(=O)C(F)(F)Oc2cc(F)c(-n3c(=O)n(C)c(=S)n(C)c3=O)cc21` [B.95, trifludimoxazin]: the “herbicidal activity against GALAP found” value in experiment [1] (setting [22]), in experiment [1] (setting [23]) and in experiment [1] (setting [24]) was 75 throughout. Besides, the “herbicidal activity against GERDI found” value in experiment [2] (setting [25]) and in experiment [2] (setting [24]) was 65 in each case. For the same molecule, the “herbicidal activity against ERICA found” value was found to be 40 in [11] (setting [26]); 45 in [11] (I.1 15.62 g/ha, B.95 2 g/ha a.i.); 40 in [11] (setting [22]); 45 in experiment [11] (setting [23]); 40 in experiment [11] (setting [25]); 45 in [11] (setting [24]). The “herbicidal activity against PAPRH found” value in experiment [8] (setting [22]) and in experiment [8] (setting [25]) was 35 throughout. For the same molecule, the “herbicidal activity against APESV found” value in experiment [13] (I.1 15.62 g/ha) and in [13] (I.1 62.5 g/ha) was 30 throughout. Also, the “herbicidal activity against MATCH found” value came to 30 in experiment [5] (post emergence, I.1 15.62 g/ha, B.95 1 g/ha a.i.); 30 in [5] (setting [27]); 65 in [5] (post emergence, I.1 31.25 g/ha, B.95 2 g/ha a.i.); 65 in [5] (post emergence, I.1 62.5 g/ha, B.95 2 g/ha a.i.). Further, the “herbicidal activity against ALOMY found” value in [6] (setting [27]) was 25; in experiment [6] (post emergence, I.1 62.5 g/ha, B.95 1 g/ha a.i.) it was 25. In addition, the “herbicidal activity against ECHCG found” value is on record as 25 in [10] (setting [26]) and 45 in [10] (setting [24]).
Consider `C/C(=N\NC(=O)Nc1cc(F)cc(F)c1)c1ncccc1C(=O)O` [B.174, diflufenzopyr], for which the pest or weed control at 20 g/ha turned out to be 85% in experiment [3] (Abutilon theophrasti, post-emergence, 480 h, read-out: herbicidal activity against ABUTH found); 65% in experiment [14]; 0% in experiment [13] (Apera spica-venti, post-emergence, 480 h, read-out: herbicidal activity against APESV found); 70% in [5] (setting [28]); 30% in experiment [9] (Fallopia convolvulus, post-emergence, 480 h, read-out: herbicidal activity against POLCO found); 0% in experiment [6] (Alopecurus myosuroides, post-emergence, 480 h, read-out: herbicidal activity against ALOMY found). Also, the “herbicidal activity against STEME found” value in [4] (B.174 alone 40 g/ha a.i.) came to 50. In addition, the pest or weed control at 40 g/ha came out at 70% in experiment [5] (setting [28]) and 65% in experiment [12] (Viola arvensis, post-emergence, read-out: herbicidal activity against VIOAR found).
On to `CCCCCCCCSC(=O)Oc1cc(Cl)nnc1-c1ccccc1` [B.191, pyridate], for which the “herbicidal activity against GALAP found” value in experiment [1] (setting [29]) is 90%. In experiment [11] (setting [29]), the “herbicidal activity against ERICA found” value turned out to be 70%. The “herbicidal activity against STEME found” value in experiment [4] (setting [29]) stood at 0%. In addition, the “herbicidal activity against MATCH found” value in experiment [5] (post emergence, a.i. g/ha: I.1 62.5, B.191 225, 20 days after treatment) is recorded as 20%.

The values are drawn from patent US10881110B2, “Herbicidal compositions comprising isoxazolo[5,4-b]pyridines” (BASF SE, priority 2014, dated 2021).
